Assay results reported in patent publication US20160367623A1, “AGONISTS OF GUANYLATE CYCLASE USEFUL FOR THE TREATMENT OF GASTROINTESTINAL DISORDERS, INFLAMMATION, CANCER AND OTHER DISORDERS” (priority 2015, published 2016).
Bridge positions count the residues as written; N and C are the ends. Ends that are not written are not given here.

System: patients with chronic idiopathic constipation (CIC)
Assay: Second phase 3 CIC trial: change from baseline in stool consistency (BSFS)
Type: in vivo, human
Settings: 6 mg
[1] = Post-Treatment Week 14, ITT Population-Excluding Duplicate Patients
[2] = Week 1, All Randomized (includes Duplicate Patients)
[3] = Week 1, ITT Population-Excluding Duplicate Patients
[4] = Week 2, All Randomized (includes Duplicate Patients)
[5] = Week 2, ITT Population-Excluding Duplicate Patients
[6] = Week 3, All Randomized (includes Duplicate Patients)
[7] = Week 3, ITT Population-Excluding Duplicate Patients
[8] = Week 4, All Randomized (includes Duplicate Patients)
[9] = Week 4, ITT Population-Excluding Duplicate Patients
[10] = Week 5, All Randomized (includes Duplicate Patients)
[11] = Week 5, ITT Population-Excluding Duplicate Patients
[12] = Week 6, All Randomized (includes Duplicate Patients)
[13] = Week 6, ITT Population-Excluding Duplicate Patients
[14] = Week 7, All Randomized (includes Duplicate Patients)
[15] = Week 7, ITT Population-Excluding Duplicate Patients
[16] = Week 8, All Randomized (includes Duplicate Patients)
[17] = Week 8, ITT Population-Excluding Duplicate Patients

Asn^1-Asp^2-Glu^3-Cys^4-Glu^5-Leu^6-Cys^7-Val^8-Asn^9-Val^10-Ala^11-Cys^12-Thr^13-Gly^14-Cys^15-Leu^16 (NDECELCVNVACTGCL; disulfide 4-12, 7-15) [Plecanatide, uroguanylin analogue, guanylate cyclase-C agonist; (C4:C12, C7:C15) bicycle peptide]
Change from Baseline in Stool Consistency, LS Mean (SE) [1]: 1.07 (0.074)
Change from Baseline in Stool Consistency, Mean (SD) [1]: 1.05 (1.358)
Change from Baseline in Stool Consistency, Difference from Placebo [2]: 0.84
Change from Baseline in Stool Consistency, LS Mean (SE) [2]: 1.41 (0.071)
Change from Baseline in Stool Consistency, Mean (SD) [2]: 1.43 (1.501)
Change from Baseline in Stool Consistency, Difference from Placebo (Week 1, ITT Population): 0.84
Change from Baseline in Stool Consistency, LS Mean (SE) (Week 1, ITT Population): 1.44 (0.073)
Change from Baseline in Stool Consistency, Mean (SD) (Week 1, ITT Population): 1.45 (1.501)
Change from Baseline in Stool Consistency, Difference from Placebo [3]: 0.86
Change from Baseline in Stool Consistency, LS Mean (SE) [3]: 1.47 (0.073)
Change from Baseline in Stool Consistency, Mean (SD) [3]: 1.47 (1.495)
Change from Baseline in Stool Consistency, Difference from Placebo [4]: 0.67
Change from Baseline in Stool Consistency, LS Mean (SE) [4]: 1.36 (0.071)
Change from Baseline in Stool Consistency, Mean (SD) [4]: 1.36 (1.560)
Change from Baseline in Stool Consistency, Difference from Placebo (Week 2, ITT Population): 0.68
Change from Baseline in Stool Consistency, LS Mean (SE) (Week 2, ITT Population): 1.39 (0.073)
Change from Baseline in Stool Consistency, Mean (SD) (Week 2, ITT Population): 1.38 (1.560)
Change from Baseline in Stool Consistency, Difference from Placebo [5]: 0.68
Change from Baseline in Stool Consistency, LS Mean (SE) [5]: 1.41 (0.074)
Change from Baseline in Stool Consistency, Mean (SD) [5]: 1.39 (1.562)
Change from Baseline in Stool Consistency, Difference from Placebo [6]: 0.53
Change from Baseline in Stool Consistency, LS Mean (SE) [6]: 1.41 (0.072)
Change from Baseline in Stool Consistency, Mean (SD) [6]: 1.44 (1.479)
Change from Baseline in Stool Consistency, Difference from Placebo (Week 3, ITT Population): 0.54
Change from Baseline in Stool Consistency, LS Mean (SE) (Week 3, ITT Population): 1.44 (0.074)
Change from Baseline in Stool Consistency, Mean (SD) (Week 3, ITT Population): 1.46 (1.480)
Change from Baseline in Stool Consistency, Difference from Placebo [7]: 0.55
Change from Baseline in Stool Consistency, LS Mean (SE) [7]: 1.46 (0.074)
Change from Baseline in Stool Consistency, Mean (SD) [7]: 1.47 (1.485)
Change from Baseline in Stool Consistency, Difference from Placebo [8]: 0.54
Change from Baseline in Stool Consistency, LS Mean (SE) [8]: 1.41 (0.071)
Change from Baseline in Stool Consistency, Difference from Placebo (Week 4, ITT Population): 0.52
Change from Baseline in Stool Consistency, LS Mean (SE) (Week 4, ITT Population): 1.42 (0.074)
Change from Baseline in Stool Consistency, Mean (SD) (Week 4, ITT Population): 1.42 (1.603)
Change from Baseline in Stool Consistency, Difference from Placebo [9]: 0.53
Change from Baseline in Stool Consistency, LS Mean (SE) [9]: 1.44 (0.074)
Change from Baseline in Stool Consistency, Mean (SD) [9]: 1.42 (1.608)
Change from Baseline in Stool Consistency, Difference from Placebo [10]: 0.67
Change from Baseline in Stool Consistency, LS Mean (SE) [10]: 1.52 (0.072)
Change from Baseline in Stool Consistency, Difference from Placebo (Week 5, ITT Population): 0.68
Change from Baseline in Stool Consistency, LS Mean (SE) (Week 5, ITT Population): 1.55 (0.074)
Change from Baseline in Stool Consistency, Mean (SD) (Week 5, ITT Population): 1.57 (1.594)
Change from Baseline in Stool Consistency, Difference from Placebo [11]: 0.69
Change from Baseline in Stool Consistency, LS Mean (SE) [11]: 1.58 (0.075)
Change from Baseline in Stool Consistency, Mean (SD) [11]: 1.58 (1.598)
Change from Baseline in Stool Consistency, Difference from Placebo [12]: 0.70
Change from Baseline in Stool Consistency, LS Mean (SE) [12]: 1.51 (0.072)
Change from Baseline in Stool Consistency, Difference from Placebo (Week 6, ITT Population): 0.72
Change from Baseline in Stool Consistency, LS Mean (SE) (Week 6, ITT Population): 1.55 (0.074)
Change from Baseline in Stool Consistency, Mean (SD) (Week 6, ITT Population): 1.57 (1.517)
Change from Baseline in Stool Consistency, Difference from Placebo [13]: 0.74
Change from Baseline in Stool Consistency, LS Mean (SE) [13]: 1.57 (0.075)
Change from Baseline in Stool Consistency, Mean (SD) [13]: 1.58 (1.520)
Change from Baseline in Stool Consistency, Difference from Placebo [14]: 0.64
Change from Baseline in Stool Consistency, LS Mean (SE) [14]: 1.50 (0.072)
Change from Baseline in Stool Consistency, Difference from Placebo (Week 7, ITT Population): 0.64
Change from Baseline in Stool Consistency, LS Mean (SE) (Week 7, ITT Population): 1.54 (0.074)
Change from Baseline in Stool Consistency, Mean (SD) (Week 7, ITT Population): 1.56 (1.540)
Change from Baseline in Stool Consistency, Difference from Placebo [15]: 0.67
Change from Baseline in Stool Consistency, LS Mean (SE) [15]: 1.56 (0.075)
Change from Baseline in Stool Consistency, Mean (SD) [15]: 1.57 (1.544)
Change from Baseline in Stool Consistency, Difference from Placebo [16]: 0.57
Change from Baseline in Stool Consistency, LS Mean (SE) [16]: 1.48 (0.072)
Change from Baseline in Stool Consistency, Difference from Placebo (Week 8, ITT Population): 0.58
Change from Baseline in Stool Consistency, LS Mean (SE) (Week 8, ITT Population): 1.51 (0.074)
Change from Baseline in Stool Consistency, Mean (SD) (Week 8, ITT Population): 1.53 (1.539)
Change from Baseline in Stool Consistency, Difference from Placebo [17]: 0.60
Change from Baseline in Stool Consistency, LS Mean (SE) [17]: 1.53 (0.075)
Change from Baseline in Stool Consistency, Mean (SD) [17]: 1.54 (1.543)
Change from Baseline in Stool Consistency, Difference from Placebo (Week 9, All Randomized (includes Duplicate Patients)): 0.67
